Reference: ChEMBL document CHEMBL3044800, “Synthesis, characterization and anticancer activity of 3-aza-analogues of DP-7” (Med Chem Res, 2012)
Active and inactive are the calls of the source. No cut-off for these calls is given here.

Experiments:
[1] = biological target: T1, ATP-dependent translocase ABCB1 (Homo sapiens, UniProt P08183); experiment: Inhibition of MDR1 (unknown origin)-mediated rhodamine 123 uptake expressed in mouse L5178Y cells assessed as fluorescence activity ratio at 4 uM by flow cytometry relative to untreated control; type: cell-based
L5178Y = experiment: Antiproliferative activity against Mus musculus (mouse) L5178Y cells transfected with mdr1 (unknown origin) after 72 hr by MTT assay; type: functional, cell-based
[2] = biological target: T1, ATP-dependent translocase ABCB1; experiment: Inhibition of MDR1 (unknown origin)-mediated rhodamine 123 uptake expressed in mouse L5178Y cells assessed as fluorescence activity ratio at 21.99 uM by flow cytometry relative to untreated control; type: cell-based
[3] = biological target: Voltage-gated L-type calcium channel (Rattus norvegicus, UniProt P22002+Q02485+P27732); experiment: Inhibition of L-type calcium channel in Rattus norvegicus (rat) heart artery myocytes; type: tissue-based

T1 sequence (P08183 whole entry): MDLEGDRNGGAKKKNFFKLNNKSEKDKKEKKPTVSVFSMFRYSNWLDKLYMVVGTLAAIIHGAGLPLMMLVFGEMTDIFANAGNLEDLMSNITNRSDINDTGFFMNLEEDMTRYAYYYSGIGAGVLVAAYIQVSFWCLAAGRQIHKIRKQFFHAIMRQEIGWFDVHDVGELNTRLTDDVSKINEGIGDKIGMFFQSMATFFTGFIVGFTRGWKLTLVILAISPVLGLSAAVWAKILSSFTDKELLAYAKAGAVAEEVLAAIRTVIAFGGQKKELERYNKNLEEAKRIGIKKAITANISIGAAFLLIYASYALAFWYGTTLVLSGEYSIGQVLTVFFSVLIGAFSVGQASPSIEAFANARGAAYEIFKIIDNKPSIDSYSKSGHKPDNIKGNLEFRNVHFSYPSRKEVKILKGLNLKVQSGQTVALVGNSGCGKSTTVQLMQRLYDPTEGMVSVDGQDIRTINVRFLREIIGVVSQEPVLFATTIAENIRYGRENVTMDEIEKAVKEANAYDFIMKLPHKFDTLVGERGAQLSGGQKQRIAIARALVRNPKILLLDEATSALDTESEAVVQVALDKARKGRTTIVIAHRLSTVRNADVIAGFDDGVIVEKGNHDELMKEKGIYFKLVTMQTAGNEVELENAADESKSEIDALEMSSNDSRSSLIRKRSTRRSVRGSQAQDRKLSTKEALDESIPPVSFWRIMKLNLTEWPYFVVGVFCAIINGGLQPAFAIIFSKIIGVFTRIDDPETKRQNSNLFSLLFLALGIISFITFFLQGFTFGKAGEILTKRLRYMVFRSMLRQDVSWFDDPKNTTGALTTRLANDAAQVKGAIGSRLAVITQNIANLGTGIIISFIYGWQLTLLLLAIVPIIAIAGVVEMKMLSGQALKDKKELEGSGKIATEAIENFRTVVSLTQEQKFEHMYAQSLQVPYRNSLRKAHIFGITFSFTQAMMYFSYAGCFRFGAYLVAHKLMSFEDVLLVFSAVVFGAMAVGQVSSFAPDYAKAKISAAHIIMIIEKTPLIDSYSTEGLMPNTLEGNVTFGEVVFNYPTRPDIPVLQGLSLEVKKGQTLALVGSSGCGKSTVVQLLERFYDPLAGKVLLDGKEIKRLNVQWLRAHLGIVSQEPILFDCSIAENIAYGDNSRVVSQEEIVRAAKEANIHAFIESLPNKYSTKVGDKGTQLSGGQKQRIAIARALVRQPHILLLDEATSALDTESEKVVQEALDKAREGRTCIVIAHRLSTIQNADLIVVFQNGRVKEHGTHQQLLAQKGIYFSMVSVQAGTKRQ

Row | RLU [1] | SMILES | further results
1 | 1.23 | CC1=C(C(=O)c2ccccc2)C(c2cccc(Oc3ccccc3)c2)NC(=O)N1 (stereo unspecified) | –
2 | 29.87 | CC1=C(C(=O)c2ccccc2)C(c2cccc3ccccc23)NC(=O)N1 (stereo unspecified) | Activity (L5178Y): Active
3 | 0.98 | CC1=C(C(=O)c2ccccc2)C(c2ccccc2Cl)NC(=O)N1 (stereo unspecified) | –
4 | 3.68 | CC1=C(C(=O)c2ccccc2)C(c2cccc(Oc3ccccc3)c2)NC(=S)N1 (stereo unspecified) | Activity (L5178Y): Active
5 | 1.15 | CC1=C(C(=O)c2ccccc2)C(c2cccc(Br)c2)NC(=O)N1 (stereo unspecified) | –
6 | 0.94 | CC1=C(C(=O)c2ccccc2)C(c2ccccc2[N+](=O)[O-])NC(=O)N1 (stereo unspecified) | –
7 | 78.56 | CC1=C(C(=O)c2ccccc2)C(c2c[nH]c3ccccc23)NC(=O)N1 (stereo unspecified) | Activity (L5178Y): Active
8 | 1.09 | CC1=C(C(=O)c2ccccc2)C(c2ccccc2)NC(=O)N1 (stereo unspecified) | –
9 | 0.89 | CC1=C(C(=O)c2ccccc2)C(c2cccc(Cl)c2)NC(=O)N1 (stereo unspecified) | –
10 | 4.57 | CC1=C(C(=O)c2ccccc2)C(c2c3ccccc3cc3ccccc23)NC(=O)N1 (stereo unspecified) | –

Second part, the compound before the results:

Row | SMILES | RLU [1] | further results
11 | CC1=C(C(=O)c2ccccc2)C(c2ccccc2[N+](=O)[O-])NC(=S)N1 (stereo unspecified) | 0.88 | –
12 | COc1ccc(OC)c(C2NC(=O)NC(C)=C2C(=O)c2ccccc2)c1 (stereo unspecified) | 36.85 | Activity (L5178Y): Active
13 | CC1=C(C(=O)c2ccccc2)C(c2ccccc2)NC(=S)N1 (stereo unspecified) | 0.97 | –
14 | CC1=C(C(=O)c2ccccc2)C(c2ccc(Cl)cc2)NC(=O)N1 (stereo unspecified) | 0.96 | –
15 | COc1cc(C2NC(=S)NC(C)=C2C(=O)c2ccccc2)cc(OC)c1OC (stereo unspecified) | 0.93 | –
16 | COc1ccc(C2NC(S)=NC(C)=C2C(=O)c2ccccc2)cc1OC (stereo unspecified) | 1.28 | –
17 | CC1=C(C(=O)c2ccccc2)C(c2ccccc2O)NC(=S)N1 (stereo unspecified) | 1.03 | –
18 | CC1=C(C(=O)c2ccccc2)C(c2ccco2)NC(=O)N1 (stereo unspecified) | 1.26 | –
19 | CC1=C(C(=O)c2ccccc2)C(/C=C/c2ccccc2)NC(=O)N1 (stereo unspecified) | 0.99 | –
20 | CC1=C(C(=O)c2ccccc2)C(/C=C/c2ccccc2)NC(=S)N1 (stereo unspecified) | 1.28 | –
21 | CC1=C(C(=O)c2ccccc2)C(c2cccc(Br)c2)NC(=S)N1 (stereo unspecified) | 1.11 | –
22 | CC1=C(C(=O)c2ccccc2)C(c2cccc(O)c2)NC(=O)N1 (stereo unspecified) | 0.97 | –
23 | CC1=C(C(=O)c2ccccc2)C(c2ccc(C#N)cc2)NC(=O)N1 (stereo unspecified) | 2.11 | –
24 | CC1=C(C(=O)c2ccccc2)C(c2cc(Br)c(O)c(Br)c2)NC(=O)N1 (stereo unspecified) | 0.82 | –
25 | CC1=C(C(=O)c2ccccc2)C(c2ccccc2Cl)NC(=S)N1 (stereo unspecified) | 1.17 | –
26 | CC1=C(C(=O)c2ccccc2)C(c2cccc([N+](=O)[O-])c2)NC(=O)N1 (stereo unspecified) | 1.39 | –
27 | CC1=C(C(=O)c2ccccc2)C(c2cccc(Cl)c2)NC(=S)N1 (stereo unspecified) | 1.21 | –
28 | COc1ccc(CCN(C)CCCC(C#N)(c2ccc(OC)c(OC)c2)C(C)C)cc1OC (stereo unspecified) [VERAPAMIL] | – | RLU [2]: 4.26
29 | CC1=C(C(=O)c2ccccc2)C(c2ccc(Cl)cc2)NC(=S)N1 (stereo unspecified) | 1.03 | –
30 | COc1cc(C2NC(=O)NC(C)=C2C(=O)c2ccccc2)cc(OC)c1OC (stereo unspecified) | 0.96 | –
31 | CC1=C(C(=O)c2ccccc2)C(c2cccc(Oc3ccccc3)c2)C(C(=O)c2ccccc2)=C(C)N1 | – | IC50 [3]: 1.12 µM
32 | COc1cc(OC)cc(C2NC(=O)NC(C)=C2C(=O)c2ccccc2)c1 (stereo unspecified) | 1.15 | –
